The values below are quoted from earlier work in patent publication US9265822B2 (priority 2009, dated 2016).

Each structure is given as a SMILES string.

The data set relates to American isolates of H3N2.

Consider `CC(N)C12CC3CC(CC(C3)C1)C2` (centres unmarked) [rimantadine], for which the measured resistance is listed as 91%.
Take `NC12CC3CC(CC(C3)C1)C2` [amantadine]: the measured resistance is 91%.
